Measurements taken from ChEMBL document CHEMBL2016493, “Design, synthesis, synergistic antimicrobial activity and cytotoxicity of 4-aryl substituted 3,4-dihydropyrimidinones of curcumin” (Bioorg Med Chem Lett, 2012).
The source made the active and inactive calls. The rule behind the calls is not given here.

What was measured:
[1] = tested on: Burkholderia pseudomallei; experiment: Antibacterial activity against Burkholderia pseudomallei NTCC 10274 at 160 uM/ml after 24 hrs by kirby-bauer method; format: functional; details: for zone of inhibition at 160 µM: NTCC 10274, 24 h, read-out: IZ
[2] = tested on: Escherichia coli; experiment: Antibacterial activity against Escherichia coli ATCC 35218 at 80 uM/ml after 24 hrs by kirby-bauer method; format: functional; details: ATCC 35218, 24 h, read-out: IZ
[3] = tested on: Staphylococcus aureus; experiment: Antibacterial activity against Staphylococcus aureus ATCC 11632 at 160 uM/ml after 24 hrs by kirby-bauer method; format: functional; details: ATCC 11632, 24 h, read-out: IZ
[4] = tested on: Burkholderia pseudomallei; experiment: Antibacterial activity against Burkholderia pseudomallei NTCC 10274 at 80 uM/ml after 24 hrs by kirby-bauer method; format: functional; details: NTCC 10274, 24 h, read-out: IZ
[5] = tested on: Salmonella typhimurium; experiment: Antibacterial activity against Salmonella typhimurium ATCC 23564 at 40 uM/ml after 24 hrs by kirby-bauer method; format: functional, Salmonella enterica subsp. enterica serovar Typhimurium
[6] = tested on: Staphylococcus aureus; experiment: Antibacterial activity against Staphylococcus aureus ATCC 11632 at 40 uM/ml after 24 hrs by kirby-bauer method; format: functional
[7] = tested on: Pseudomonas aeruginosa; experiment: Antibacterial activity against Pseudomonas aeruginosa ATCC 15499 at 160 uM/ml after 24 hrs by kirby-bauer method; format: functional; details: ATCC 15499, 24 h, read-out: IZ
[8] = tested on: Staphylococcus aureus; experiment: Antibacterial activity against Staphylococcus aureus ATCC 11632 at 20 uM/ml after 24 hrs by kirby-bauer method; format: functional
[9] = tested on: Burkholderia pseudomallei; experiment: Antibacterial activity against Burkholderia pseudomallei NTCC 10274 at 40 uM/ml after 24 hrs by kirby-bauer method; format: functional; details: NTCC 10274, 24 h, read-out: IZ
[10] = tested on: Burkholderia pseudomallei; experiment: Antibacterial activity against Burkholderia pseudomallei NTCC 10274 at 20 uM/ml after 24 hrs by kirby-bauer method; format: functional; details: NTCC 10274, 24 h, read-out: IZ
[11] = tested on: Pseudomonas aeruginosa; experiment: Antibacterial activity against Pseudomonas aeruginosa ATCC 15499 at 80 uM/ml after 24 hrs by kirby-bauer method; format: functional; details: for zone of inhibition at 80 µM: ATCC 15499, 24 h, read-out: IZ
[12] = tested on: Pseudomonas aeruginosa; experiment: Antibacterial activity against Pseudomonas aeruginosa ATCC 15499 at 20 uM/ml after 24 hrs by kirby-bauer method; format: functional; details: for zone of inhibition at 20 µM: ATCC 15499, 24 h, read-out: IZ
[13] = tested on: Pseudomonas aeruginosa; experiment: Antibacterial activity against Pseudomonas aeruginosa ATCC 15499 at 40 uM/ml after 24 hrs by kirby-bauer method; format: functional; details: for zone of inhibition at 40 µM: ATCC 15499, 24 h, read-out: IZ
[14] = tested on: Salmonella typhimurium; experiment: Antibacterial activity against Salmonella typhimurium ATCC 23564 at 80 uM/ml after 24 hrs by kirby-bauer method; format: functional, Salmonella enterica subsp. enterica serovar Typhimurium; details: Salmonella enterica, ATCC 23564, 24 h; read-out: IZ
[15] = tested on: Staphylococcus aureus; experiment: Antibacterial activity against Staphylococcus aureus ATCC 11632 at 80 uM/ml after 24 hrs by kirby-bauer method; format: functional; details: ATCC 11632, 24 h, read-out: IZ
[16] = tested on: Escherichia coli; experiment: Antibacterial activity against Escherichia coli ATCC 35218 at 40 uM/ml after 24 hrs by kirby-bauer method; format: functional; details: ATCC 35218, 24 h, read-out: IZ
[17] = tested on: Salmonella typhimurium; experiment: Antibacterial activity against Salmonella typhimurium ATCC 23564 at 160 uM/ml after 24 hrs by kirby-bauer method; format: functional, Salmonella enterica subsp. enterica serovar Typhimurium; details: for zone of inhibition at 160 µM: Salmonella enterica, ATCC 23564, 24 h, read-out: IZ
[18] = tested on: Escherichia coli; experiment: Antibacterial activity against Escherichia coli ATCC 35218 at 160 uM/ml after 24 hrs by kirby-bauer method; format: functional; details: ATCC 35218, 24 h, read-out: IZ
[19] = tested on: Escherichia coli; experiment: Antibacterial activity against Escherichia coli ATCC 35218 at 20 uM/ml after 24 hrs by kirby-bauer method; format: functional; details: ATCC 35218, 24 h, read-out: IZ
[20] = tested on: Salmonella typhimurium; experiment: Antibacterial activity against Salmonella typhimurium ATCC 23564 at 20 uM/ml after 24 hrs by kirby-bauer method; format: functional, Salmonella enterica subsp. enterica serovar Typhimurium
[21] = tested on: Trichoderma viride; experiment: Antifungal activity against Trichoderma viride MTCC 1107 at 160 uM/ml after 48 hrs by paper disc diffusion method; format: functional; details: MTCC 1107, 48 h, read-out: IZ
[22] = tested on: Aspergillus flavus; experiment: Antifungal activity against Aspergillus flavus MTCC 1021 at 160 uM/ml after 48 hrs by paper disc diffusion method; format: functional
[23] = tested on: Aspergillus niger; experiment: Antifungal activity against Aspergillus niger MTCC 1108 at 160 uM/ml after 48 hrs by paper disc diffusion method; format: functional; details: MTCC 1108, 48 h, read-out: IZ
[24] = tested on: Aspergillus niger; experiment: Antifungal activity against Aspergillus niger MTCC 1108 at 40 uM/ml after 48 hrs by paper disc diffusion method; format: functional
[25] = tested on: Curvularia lunata; experiment: Antifungal activity against Curvularia lunata MTCC 581 at 160 uM/ml after 48 hrs by paper disc diffusion method; format: functional; details: MTCC 581, 48 h, read-out: IZ
[26] = tested on: Aspergillus niger; experiment: Antifungal activity against Aspergillus niger MTCC 1108 at 80 uM/ml after 48 hrs by paper disc diffusion method; format: functional
[27] = tested on: Trichoderma viride; experiment: Antifungal activity against Trichoderma viride MTCC 1107 at 40 uM/ml after 48 hrs by paper disc diffusion method; format: functional; details: MTCC 1107, 48 h, read-out: IZ
[28] = tested on: Curvularia lunata; experiment: Antifungal activity against Curvularia lunata MTCC 581 at 20 uM/ml after 48 hrs by paper disc diffusion method; format: functional; details: MTCC 581, 48 h, read-out: IZ
[29] = tested on: QG-56; experiment: Cytotoxicity against human QG56 cells after 48 hrs by MTT assay; format: functional, cell-based
[30] = tested on: Curvularia lunata; experiment: Antifungal activity against Curvularia lunata MTCC 581 at 80 uM/ml after 48 hrs by paper disc diffusion method; format: functional; details: MTCC 581, 48 h, read-out: IZ
[31] = tested on: HCT-116
[32] = tested on: Trichoderma viride; experiment: Antifungal activity against Trichoderma viride MTCC 1107 at 20 uM/ml after 48 hrs by paper disc diffusion method; format: functional; details: MTCC 1107, 48 h, read-out: IZ
[33] = tested on: Trichoderma viride; experiment: Antifungal activity against Trichoderma viride MTCC 1107 at 80 uM/ml after 48 hrs by paper disc diffusion method; format: functional; details: MTCC 1107, 48 h, read-out: IZ
[34] = tested on: Curvularia lunata; experiment: Antifungal activity against Curvularia lunata MTCC 581 at 40 uM/ml after 48 hrs by paper disc diffusion method; format: functional; details: MTCC 581, 48 h, read-out: IZ
[35] = tested on: HepG2
[36] = tested on: Aspergillus niger; experiment: Antifungal activity against Aspergillus niger MTCC 1108 at 20 uM/ml after 48 hrs by paper disc diffusion method; format: functional
[37] = tested on: Aspergillus flavus; experiment: Antifungal activity against Aspergillus flavus MTCC 1021 at 80 uM/ml after 48 hrs by paper disc diffusion method; format: functional; details: MTCC 1021, 48 h, read-out: IZ
[38] = tested on: Aspergillus flavus; experiment: Antifungal activity against Aspergillus flavus MTCC 1021 at 40 uM/ml after 48 hrs by paper disc diffusion method; format: functional; details: MTCC 1021, 48 h, read-out: IZ
[39] = tested on: Aspergillus flavus; experiment: Antifungal activity against Aspergillus flavus MTCC 1021 at 20 uM/ml after 48 hrs by paper disc diffusion method; format: functional; details: MTCC 1021, 48 h, read-out: IZ
[40] = Salmonella enterica, ATCC 23564, 24 h, read-out: IZ
[41] = Salmonella enterica subsp. enterica serovar Typhimurium

| Compound | zone of inhibition at 160 µM [1] | zone of inhibition at 80 µM [2] | zone of inhibition at 160 µM [3] | zone of inhibition at 80 µM [4] | zone of inhibition at 160 µM [7] | zone of inhibition at 40 µM [9] | zone of inhibition at 20 µM [10] | zone of inhibition at 80 µM [11] | zone of inhibition at 20 µM [12] | zone of inhibition at 40 µM [13] | zone of inhibition at 80 µM [14] | zone of inhibition at 80 µM [15] | zone of inhibition at 40 µM [16] | zone of inhibition at 160 µM [17] | zone of inhibition at 160 µM [18] | zone of inhibition at 20 µM [19] | zone of inhibition at 160 µM [21] | zone of inhibition at 160 µM [23] | zone of inhibition at 160 µM [25] | zone of inhibition [27] | further results |
| --- | --- | --- | --- | --- | --- | --- | --- | --- | --- | --- | --- | --- | --- | --- | --- | --- | --- | --- | --- | --- | --- |
| CC1(C)S[C@@H]2[C@H](NC(=O)[C@H](N)c3ccccc3)C(=O)N2[C@H]1C(=O)O [AMPICILLIN] | 46 mm | 32 mm | 37 mm | 41 mm | 39 mm | 39 mm | 38 mm | 36 mm | 31 mm | 34 mm | 45 mm | 30 mm | 30 mm | 51 mm | 34 mm | 30 mm |  |  |  |  | zone of inhibition at 40 µM [5, 40]: 44 mm; zone of inhibition at 40 µM ([6]; ATCC 11632, 24 h, read-out: IZ): 29 mm; zone of inhibition at 20 µM ([8]; ATCC 11632, 24 h, read-out: IZ): 28 mm; zone of inhibition at 20 µM [20, 40]: 37 mm |
| COc1cc(/C=C/C(=O)C2=C(/C=C/c3ccc(O)c(OC)c3)NC(=O)NC2c2ccc(Cl)cc2)ccc1O (centres undefined) |  | 16 mm | 12 mm |  | 9 mm |  |  |  |  |  | 9 mm | 10 mm | 11 mm | 11 mm | 19 mm | 9 mm | 18 mm | 12 mm | 22 mm | 17 mm | inhibition zone (IZ) [1]: inactive; inhibition zone (IZ) [22]: inactive; inhibition zone (IZ) [24]: inactive; inhibition zone (IZ) [26]: inactive; inhibition zone (IZ) [5, 41]: inactive; zone of inhibition at 20 µM [28]: 9 mm; inhibition zone (IZ) [6]: inactive; inhibition zone (IZ) [8]: inactive; IC50 [29]: 100 uM/ml; zone of inhibition at 80 µM [30]: 18 mm; IC50 [31]: 100 uM/ml; zone of inhibition at 20 µM [32]: 15 mm; zone of inhibition at 80 µM [33]: 17 mm; inhibition zone (IZ) [11]: inactive; inhibition zone (IZ) [12]: inactive; zone of inhibition at 40 µM [34]: 12 mm; inhibition zone (IZ) [13]: inactive; IC50 [35]: 100 uM/ml; inhibition zone (IZ) [20, 41]: inactive; inhibition zone (IZ) [36]: inactive |
| COc1cc(/C=C/C(=O)C2=C(/C=C/c3ccc(O)c(OC)c3)NC(=S)NC2c2ccc(O)cc2)ccc1O (centres undefined) | 19 mm | 18 mm | 12 mm | 17 mm | 18 mm | 16 mm | 14 mm | 14 mm | 9 mm | 12 mm |  | 10 mm | 17 mm |  | 22 mm | 13 mm | 20 mm | 14 mm | 24 mm | 14 mm | zone of inhibition at 160 µM ([22]; MTCC 1021, 48 h, read-out: IZ): 15 mm; zone of inhibition at 40 µM ([24]; MTCC 1108, 48 h, read-out: IZ): 9 mm; zone of inhibition at 80 µM ([26]; MTCC 1108, 48 h, read-out: IZ): 11 mm; zone of inhibition at 20 µM [28]: 20 mm; inhibition zone (IZ) [6]: inactive; zone of inhibition at 80 µM [37]: 13 mm; inhibition zone (IZ) [8]: inactive; zone of inhibition at 40 µM [38]: 11 mm; IC50 [29]: 50 uM/ml; zone of inhibition at 80 µM [30]: 22 mm; IC50 [31]: 50 uM/ml; zone of inhibition at 20 µM [32]: 11 mm; zone of inhibition at 80 µM [33]: 17 mm; zone of inhibition at 40 µM [34]: 21 mm; inhibition zone (IZ) [17, 41]: inactive; IC50 [35]: 100 uM/ml; zone of inhibition at 20 µM [39]: 9 mm; inhibition zone (IZ) [36]: inactive |
